Laboratory results as given in publication PMC7791840, “The R-enantiomer of ketorolac reduces ovarian cancer tumor burden in vivo” (BMC Cancer, 2021).

Tests used:
[1] = Toxicity assessment, blood chemistry after chronic treatment; assay type: in vivo; conditions: tumor-bearing mice, 5 mg/kg/d, 25 days, Average ± SD
Description: For toxicity assessment studies at an increased R-ketorolac dose of 5 mg/kg/d, athymic nude female mice were purchased from Charles River Laboratory (Wilmington, MA, strain code 490). Mice were injected i.p. with 1 × 10^6 SKOV3ip-RLuc-GFP cells suspended in sterile saline. Xenografts were established until tumors reached a bioluminescence imaging (BLI) value of ~ 3 × 10^8 radiance (IVIS SpectrumCT, PerkinElmer, Waltham MA). Mice were conditioned to placebo pills once a day for no less than 3 days during xenograft growth, then randomized to receive placebo or 5 mg/kg/d R-ketorolac for 25 days. Blood was collected via cardiac puncture and 0.2–0.4 mL was added to Lithium Heparin tubes (BD Microtainer, Ref #365965). Samples were mixed thoroughly immediately after filling the tube by gently inverting the tube by hand. Samples were kept and analyzed at room temperature within 60 min of collection. For each sample analysis 100 μl of blood was added to Abaxis Comprehensive Diagnostic Profile cassette (Abaxis, Inc. Union City, CA Ref. # 500–0038-24) and values obtained using Abaxis VetScan2 analyzer.

RhoA = system: RhoA; parameters: method as in PMID 26071482; conditions: cited from earlier work
[2] = ROS model for points below limit of detection

O=C(c1ccccc1)c1ccc2n1CC[C@H]2C(=O)O [R-ketorolac]
Alanine aminotransferase [1]: 32.30 ± 11.35 U/L
Albumin [1]: 4.05 ± 0.40 g/dL
Amylase [1]: 1069 ± 264 U/L
Blood Urea Nitrogen [1]: 16.4 ± 2.59 mg/dL
Calcium [1]: 11.58 ± 0.79 mg/dL
Globulin [1]: 1.77 ± 0.43 g/dL
Glucose [1]: 287.7 ± 81.31 mg/dL
Mouse Weight [1]: 23.67 ± 1.30 g
Phosphorus [1]: 9.86 ± 1.90 mg/dL
Sodium [1]: 151.3 ± 4.11 mmol/L
Total Bilirubin [1]: 0.26 ± 0.05 mg/dL
Total Protein [1]: 5.79 ± 0.34 g/dL
Alkaline phosphatase [1, 2]: 28.97 ± 18.75 U/L
Creatinin [1, 2]: 0.24 ± 0.13 mg/dL
Inhibition of RhoA activity (RhoA): does not inhibit the activity of RhoA
